Assay results as given in US20110052725A1, “THERAPEUTIC AGENT FOR INFECTIOUS SKIN AND MUCOSAL DISEASE” (priority 2007, published 2011).
Marks after values point to notes of the source that are not given here.

What was measured:
[1] = test system: herpesvirus type 1 (HSV1 kos); assay: Antiviral activity against herpesvirus type 1 (TCID50, CRFK cell); assay type: cell-based
Protocol: An antiviral activity against herpesvirus type 1 (HSV-1, Herpes simplex virus type 1) (virus which causes mainly herpes labialis, and also causes herpetic stomatitis, herpetic keratitis and herpes simplex encephalitis) was measured. The method will be described below.
Five-hundred ml of a culture solution of virus (herpesvirus type 1 kos) which had been cultured with CRFK cell (feline kidney cell) was centrifuged at 3,000 rpm for 3 hours, and to the sediment was added 4 ml of distilled water to thereby prepare a viral suspension. The viral suspension was sterilized by filtration using a 0.45 μm membrane filter, and cryopreserved at −80° C. until its usage.
(§1) Each of the agents was diluted with sterile distilled water, to thereby prepare a dilution series of 1,250 ppm, 125 ppm, 12.5 ppm, 1.25 ppm and 0.125 ppm.
(§2) In order to neutralize chlorine dioxide in the agent, a 0.0025M sodium thiosulfate solution was prepared using Eagle MEM, and sterilized by filtration using a 0.22 μm membrane filter.
(§3) To each of the various concentrations of the agents (240 μl) was added virus (60 μl) and stirred, to thereby sensitize the virus with the agent, for 15, 30, 60, 120 or 180 seconds. Forty μl of virus from each reaction liquid was added to a 0.0025M sodium thiosulfate solution (360 μl), to thereby neutralize chlorine dioxide. As a virus control, one diluted with distilled water, instead of the agent, was used.
(§4) Each of the agent-treated virus liquid and the control virus liquid diluted with distilled water was neutralized with a 0.0025M sodium thiosulfate solution, and then neutralized virus (100 μl) was diluted with Eagle MEM (900 μl), to obtain a 10-fold dilution series of the treated virus.
(§5) CRFK cell (50 μl/well) was incubated in a 96-well microplate for 3 days, and the diluted virus was inoculated therein (50 μl/well, 4 well/dilution). Each cell was cultured in a CO2 incubator at 37° C. for 5 days, and CPE was observed. TCID50 was calculated based on the above-mentioned equation 1 (Kerber's formula).

[2] = test system: herpesvirus type 2 (HSV2 UF-strain); assay: Antiviral activity against herpesvirus type 2 (TCID50); assay type: cell-based
Protocol: as §1, §2, §3, §4, §5
The antiviral activity against herpesvirus type 2 (HSV-2, Herpes simplex virus type 2) (virus which causes mainly genital herpes, neonatal herpes, herpetic meningitis and herpetic myelitis) was measured. Substantially the same test as in Example 10 was performed, except that the herpesvirus type 2 (standard strain; UF strain) was used instead of the herpesvirus type 1.

SMILES: OCl [Sodium hypochlorite]
- Reduction of viral infectivity titer ([1]; 1 ppm or less): apparent reduction of the infectivity titer was not observed
- Reduction of viral infectivity titer ([1]; 10 ppm, 180 seconds): ≤ 1 log
- Reduction of viral infectivity titer ([1]; discussion, compared with chlorine dioxide 10 ppm for 15 seconds): apparent reduction of the infectivity titer was not observed
- Viral infectivity titer TCID50 ([2]; 0.1 ppm, agent sensitized time 0 second): 4.25 TCID50/50 μL unit (10^n)
- Viral infectivity titer TCID50 ([2]; 0.1 ppm, agent sensitized time 30 second): 4.25 TCID50/50 μL unit (10^n)
- Viral infectivity titer TCID50 ([2]; 0.1 ppm, agent sensitized time 60 second): 4.25 TCID50/50 μL unit (10^n)
- Viral infectivity titer TCID50 ([2]; 0.1 ppm, agent sensitized time 120 second): 4.25 TCID50/50 μL unit (10^n)
- Viral infectivity titer TCID50 ([2]; 1 ppm, agent sensitized time 0 second): 4.25 TCID50/50 μL unit (10^n)
- Viral infectivity titer TCID50 ([2]; 1 ppm, agent sensitized time 30 second): 4 TCID50/50 μL unit (10^n)
- Viral infectivity titer TCID50 ([2]; 1 ppm, agent sensitized time 60 second): 3.75 TCID50/50 μL unit (10^n)
- Viral infectivity titer TCID50 ([2]; 1 ppm, agent sensitized time 120 second): 3.75 TCID50/50 μL unit (10^n)
- Viral infectivity titer TCID50 ([2]; 10 ppm, agent sensitized time 0 second): 4.25 TCID50/50 μL unit (10^n)
- Viral infectivity titer TCID50 ([2]; 10 ppm, agent sensitized time 30 second): 0 TCID50/50 μL unit (10^n)
- Viral infectivity titer TCID50 ([2]; 10 ppm, agent sensitized time 60 second): 0 TCID50/50 μL unit (10^n)
- Viral infectivity titer TCID50 ([2]; 10 ppm, agent sensitized time 120 second): 0 TCID50/50 μL unit (10^n)
